Laboratory results: US11214803B2, “Modulators of YAP1 expression” (Ionis Pharmaceuticals, Inc., priority 2019, dated 2022)
Strand notation (5' to 3'): a small letter for the sugar, then the base; units joined by * are phosphorothioate-linked, units joined directly phosphodiester-linked; [ ] holds rarer units or linkages, { } end groups; capitals alone tell only the bases. k = constrained ethyl (cEt); [5mC] = 5-methylcytosine; d = 2'-deoxy (DNA)

System: Yap1 mRNA
Assay: Dose-dependent inhibition of human Yap1 in A-431 cells (Example 7, 10,000 cells per well, RTS36584)
Format: cell-based
Conditions: free uptake
Outline: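 Yap1 mRNA was expressed as percent of untreated control after normalization to total RNA (RIBOGREEN), and IC50 was derived by log/linear linear regression. The read-out used primer-probe set RTS36584 roughly 48 hours after free-uptake dosing of oligonucleotides into A-431 cells (10,000 cells/well).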

[1] = Table 58, 15.6 nM, A-431 cells 10,000 cells per well, 48 hours
[2] = Table 58, 62.5 nM, A-431 cells 10,000 cells per well, 48 hours
[3] = Table 58, 4000.00 nM, A-431 cells 10,000 cells per well, 48 hours
[4] = Table 58, A-431 cells 10,000 cells per well
[5] = 15.6 nM, A-431 cells, 10,000 cells per well, approximately 48 hours
[6] = 62.5 nM, A-431 cells, 10,000 cells per well, approximately 48 hours
[7] = 4000.00 nM, A-431 cells, 10,000 cells per well, approximately 48 hours
[8] = A-431 cells, approximately 48 hours, linear regression on log/linear plot
[9] = Table 57, 15.6 nM, A-431 cells 10,000 cells per well, 48 hours
[10] = Table 57, 62.5 nM, A-431 cells 10,000 cells per well, 48 hours
[11] = Table 57, 4000.00 nM, A-431 cells 10,000 cells per well, 48 hours
[12] = Table 57, A-431 cells 10,000 cells per well
[13] = Table 59, 15.6 nM, A-431 cells 10,000 cells per well, 48 hours
[14] = Table 59, 62.5 nM, A-431 cells 10,000 cells per well, 48 hours
[15] = Table 59, 4000.00 nM, A-431 cells 10,000 cells per well, 48 hours
[16] = Table 59, A-431 cells 10,000 cells per well
[17] = Table 60, 15.6 nM, A-431 cells 10,000 cells per well, 48 hours
[18] = Table 60, 62.5 nM, A-431 cells 10,000 cells per well, 48 hours
[19] = Table 60, 4000.00 nM, A-431 cells 10,000 cells per well, 48 hours
[20] = Table 60, A-431 cells 10,000 cells per well

958727 (kA*kT*k[5mC]*dT*dG*dT*d[5mC]*dA*dG*dT*dT*dA*dT*k[5mC]*k[5mC]*kT; antisense) [compound 958727]
Yap1 mRNA, % UTC [1]: 90 % UTC
Yap1 mRNA, % UTC [2]: 42 % UTC
Yap1 mRNA, % UTC [3]: 8 % UTC
IC50 [4]: 100 nM

958730 (k[5mC]*kT*k[5mC]*dT*dG*dT*d[5mC]*dA*dG*dT*dT*dA*dT*k[5mC]*k[5mC]*kT; antisense) [compound 958730]
Yap1 mRNA, % UTC [5]: 88 % UTC
Yap1 mRNA, % UTC [6]: 48 % UTC
Yap1 mRNA, % UTC [7]: 7 % UTC
IC50 [8]: 100 nM

958731 (kG*k[5mC]*kT*d[5mC]*dT*dG*dT*d[5mC]*dA*dG*dT*dT*dA*kT*k[5mC]*k[5mC]; antisense) [compound 958731]
Yap1 mRNA, % UTC [9]: 85 % UTC
Yap1 mRNA, % UTC [10]: 64 % UTC
Yap1 mRNA, % UTC [11]: 19 % UTC
IC50 [12]: 100 nM

958734 (kA*k[5mC]*kA*d[5mC]*dA*dT*dA*dG*dA*dG*d[5mC]*dT*dA*kA*kG*kG; antisense) [compound 958734]
Yap1 mRNA, % UTC [5]: 87 % UTC
Yap1 mRNA, % UTC [6]: 65 % UTC
Yap1 mRNA, % UTC [7]: 15 % UTC
IC50 [8]: 100 nM

958735 (kA*kG*k[5mC]*dA*dA*dT*d[5mC]*dT*dT*dG*dT*dG*dG*kA*kT*k[5mC]; antisense) [compound 958735]
Yap1 mRNA, % UTC [5]: 116 % UTC
Yap1 mRNA, % UTC [6]: 69 % UTC
Yap1 mRNA, % UTC [7]: 23 % UTC
IC50 [8]: 200 nM

958737 (kG*kG*kA*dA*dT*dA*d[5mC]*dA*dA*dG*d[5mC]*d[5mC]*d[5mC]*kG*kA*kG; antisense) [compound 958737]
Yap1 mRNA, % UTC [13]: 104 % UTC
Yap1 mRNA, % UTC [14]: 92 % UTC
Yap1 mRNA, % UTC [15]: 29 % UTC
IC50 [16]: 400 nM

958742 (kA*kG*k[5mC]*dA*dA*dT*dA*dT*dG*dG*dT*dA*dT*kT*kA*kG; antisense) [compound 958742]
Yap1 mRNA, % UTC [1]: 105 % UTC
Yap1 mRNA, % UTC [2]: 70 % UTC
Yap1 mRNA, % UTC [3]: 20 % UTC
IC50 [4]: 200 nM

958752 (kG*kA*kA*dT*dT*dT*dT*dT*dA*dG*dT*d[5mC]*d[5mC]*kA*kG*kT; antisense) [compound 958752]
Yap1 mRNA, % UTC [1]: 102 % UTC
Yap1 mRNA, % UTC [2]: 66 % UTC
Yap1 mRNA, % UTC [3]: 9 % UTC
IC50 [4]: 100 nM

958753 (kT*kG*kT*dA*dT*dA*dT*dG*d[5mC]*d[5mC]*dG*dT*dT*k[5mC]*k[5mC]*k[5mC]; antisense) [compound 958753]
Yap1 mRNA, % UTC [17]: 72 % UTC
Yap1 mRNA, % UTC [18]: 48 % UTC
Yap1 mRNA, % UTC [19]: 11 % UTC
IC50 [20]: 100 nM

958757 (kG*kT*kG*dA*dT*d[5mC]*dT*dG*d[5mC]*dA*d[5mC]*dA*dT*kT*kG*kT; antisense) [compound 958757]
Yap1 mRNA, % UTC [1]: 110 % UTC
Yap1 mRNA, % UTC [2]: 89 % UTC
Yap1 mRNA, % UTC [3]: 27 % UTC
IC50 [4]: 300 nM

958758 (k[5mC]*kT*kA*dT*dT*d[5mC]*dA*dG*dT*dG*dA*dT*d[5mC]*kT*kG*k[5mC]; antisense) [compound 958758]
Yap1 mRNA, % UTC [13]: 83 % UTC
Yap1 mRNA, % UTC [14]: 66 % UTC
Yap1 mRNA, % UTC [15]: 12 % UTC
IC50 [16]: 100 nM

958761 (kA*kG*kT*d[5mC]*dT*d[5mC]*dA*dA*d[5mC]*dA*dA*d[5mC]*d[5mC]*kT*kT*k[5mC]; antisense) [compound 958761]
Yap1 mRNA, % UTC [9]: 84 % UTC
Yap1 mRNA, % UTC [10]: 73 % UTC
Yap1 mRNA, % UTC [11]: 24 % UTC
IC50 [12]: 200 nM

958763 (k[5mC]*kA*k[5mC]*dA*dA*dT*dA*d[5mC]*dA*dA*dG*dA*dT*kG*k[5mC]*kA; antisense) [compound 958763]
Yap1 mRNA, % UTC [13]: 98 % UTC
Yap1 mRNA, % UTC [14]: 60 % UTC
Yap1 mRNA, % UTC [15]: 8 % UTC
IC50 [16]: 100 nM

958767 (kA*k[5mC]*kG*dA*dA*dT*dA*dA*dG*dG*d[5mC]*dA*dT*kT*kA*kG; antisense) [compound 958767]
Yap1 mRNA, % UTC [13]: 101 % UTC
Yap1 mRNA, % UTC [14]: 57 % UTC
Yap1 mRNA, % UTC [15]: 10 % UTC
IC50 [16]: 100 nM

958781 (kG*kT*k[5mC]*dA*dT*d[5mC]*dT*dA*dT*dG*dT*dG*dT*k[5mC]*k[5mC]*kT; antisense) [compound 958781]
Yap1 mRNA, % UTC [9]: 77 % UTC
Yap1 mRNA, % UTC [10]: 45 % UTC
Yap1 mRNA, % UTC [11]: 10 % UTC
IC50 [12]: 100 nM

958785 (kG*k[5mC]*kA*dA*dT*d[5mC]*d[5mC]*dA*d[5mC]*dA*dA*dT*dT*k[5mC]*k[5mC]*kA; antisense) [compound 958785]
Yap1 mRNA, % UTC [5]: 78 % UTC
Yap1 mRNA, % UTC [6]: 52 % UTC
Yap1 mRNA, % UTC [7]: 6 % UTC
IC50 [8]: 100 nM

958786 (kT*kA*kT*dG*dT*d[5mC]*d[5mC]*dT*dA*d[5mC]*dT*dT*dT*k[5mC]*k[5mC]*k[5mC]; antisense) [compound 958786]
Yap1 mRNA, % UTC [9]: 106 % UTC
Yap1 mRNA, % UTC [10]: 84 % UTC
Yap1 mRNA, % UTC [11]: 25 % UTC
IC50 [12]: 300 nM

958793 (k[5mC]*k[5mC]*kG*d[5mC]*dA*dT*dT*dG*d[5mC]*d[5mC]*dT*dA*dA*kG*kA*kG; antisense) [compound 958793]
Yap1 mRNA, % UTC [17]: 88 % UTC
Yap1 mRNA, % UTC [18]: 61 % UTC
Yap1 mRNA, % UTC [19]: 25 % UTC
IC50 [20]: 200 nM

958795 (kT*kA*kT*dT*d[5mC]*d[5mC]*dG*d[5mC]*dA*dT*dT*dG*d[5mC]*k[5mC]*kT*kA; antisense) [compound 958795]
Yap1 mRNA, % UTC [5]: 90 % UTC
Yap1 mRNA, % UTC [6]: 69 % UTC
Yap1 mRNA, % UTC [7]: 20 % UTC
IC50 [8]: 200 nM

958796 (kA*kT*kT*dA*dT*dA*dT*dG*dG*dT*dT*dG*d[5mC]*kT*kT*k[5mC]; antisense) [compound 958796]
Yap1 mRNA, % UTC (Table 56, 15.6 nM, A-431 cells 10,000 cells per well, 48 hours): 91 % UTC
Yap1 mRNA, % UTC (Table 56, 62.5 nM, A-431 cells 10,000 cells per well, 48 hours): 62 % UTC
Yap1 mRNA, % UTC (Table 56, 4000.00 nM, A-431 cells 10,000 cells per well, 48 hours): 15 % UTC
IC50 (Table 56, A-431 cells 10,000 cells per well): 130 nM

958798 (kT*kG*k[5mC]*dA*dG*dT*dA*dT*dA*dA*dT*dA*dT*k[5mC]*k[5mC]*kT; antisense) [compound 958798]
Yap1 mRNA, % UTC [13]: 101 % UTC
Yap1 mRNA, % UTC [14]: 61 % UTC
Yap1 mRNA, % UTC [15]: 12 % UTC
IC50 [16]: 100 nM

958799 (kA*kT*kT*dA*d[5mC]*dT*d[5mC]*dA*dA*dT*d[5mC]*dA*dT*kG*kG*kT; antisense) [compound 958799]
Yap1 mRNA, % UTC (Table 61, 15.6 nM, A-431 cells 10,000 cells per well, 48 hours): 88 % UTC
Yap1 mRNA, % UTC (Table 61, 62.5 nM, A-431 cells 10,000 cells per well, 48 hours): 53 % UTC
Yap1 mRNA, % UTC (Table 61, 4000.00 nM, A-431 cells 10,000 cells per well, 48 hours): 10 % UTC
IC50 (Table 61, A-431 cells 10,000 cells per well): 100 nM

958805 (k[5mC]*kA*kA*dG*dA*dT*dA*dA*dT*d[5mC]*dA*dT*d[5mC]*k[5mC]*kT*k[5mC]; antisense) [compound 958805]
Yap1 mRNA, % UTC [5]: 90 % UTC
Yap1 mRNA, % UTC [6]: 89 % UTC
Yap1 mRNA, % UTC [7]: 28 % UTC
IC50 [8]: 300 nM

958807 (kT*k[5mC]*kA*dT*dT*dG*dT*dA*dG*dT*d[5mC]*dT*dG*kT*k[5mC]*kT; antisense) [compound 958807]
Yap1 mRNA, % UTC [1]: 92 % UTC
Yap1 mRNA, % UTC [2]: 65 % UTC
Yap1 mRNA, % UTC [3]: 10 % UTC
IC50 [4]: 100 nM
